# Source: the supplement of paper PMC10307832
# Key:
# Test in all cases: relative viability (nuclei count vs DMSO), 5 days (fraction); higher = more cells survive
# EKVX = system: EKVX
# Summary of the method: (§1)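 Lung cancer cell lines were seeded in 1536-well plates and dosed by pin tool the next day, with either a single drug or a fixed anchor-drug dose combined with five library-drug doses (not always all listed) spaced in √10 steps. Five days later, one step fixed the cells and stained their nuclei (final 0.05% Triton X-100, 1% formaldehyde, 1 ug/ml Hoechst), and nuclei were counted on 4× images. Relative viability is the nuclei count in treated wells divided by the count in vehicle wells, and each value is the median of duplicate plates.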
# LCLC-97TM1 = system: LCLC-97TM1
# Summary of the method: as §1
# NCI-H1437 = system: NCI-H1437
# Summary of the method: as §1
# NCI-H1650 = system: NCI-H1650
# Summary of the method: as §1
# NCI-H1666 = system: NCI-H1666
# Summary of the method: as §1
# NCI-H1792 = system: NCI-H1792
# Summary of the method: as §1
# NCI-H1915 = system: NCI-H1915
# Summary of the method: as §1
# NCI-H1975 = system: NCI-H1975
# Summary of the method: as §1
# NCI-H2342 = system: NCI-H2342
# Summary of the method: as §1
# NCI-H23 = system: NCI-H23
# Summary of the method: as §1
# NCI-H322M = system: NCI-H322M
# Summary of the method: as §1
# NCI-H358 = conditions: first compound 0.001 µM
# Summary of the method: as §1
structure (smiles),measurement,setting,value
Cc1cn(-c2cc(NC(=O)c3ccc(C)c(Nc4nccc(-c5cccnc5)n4)c3)cc(C(F)(F)F)c2)cn1 [Nilotinib] + CC(=O)Nc1cccc(-n2c(=O)n(C3CC3)c(=O)c3c(Nc4ccc(I)cc4F)n(C)c(=O)c(C)c32)c1 [Trametinib] (partner 0.02 µM),relative viability,EKVX; first compound 0.001 µM,0.336
same,relative viability,EKVX; first compound 0.003162 µM,0.351
same,relative viability,EKVX; first compound 0.01 µM,0.352
same,relative viability,EKVX; first compound 0.03162 µM,0.355
same,relative viability,EKVX; first compound 0.1 µM,0.734
same,relative viability,LCLC-97TM1; first compound 0.001 µM,0.164
same,relative viability,LCLC-97TM1; first compound 0.003162 µM,0.18
same,relative viability,LCLC-97TM1; first compound 0.01 µM,0.152
same,relative viability,LCLC-97TM1; first compound 0.03162 µM,0.114
same,relative viability,LCLC-97TM1; first compound 0.1 µM,0.227
same,relative viability,NCI-H1437; first compound 0.001 µM,0.445
same,relative viability,NCI-H1437; first compound 0.003162 µM,0.541
same,relative viability,NCI-H1437; first compound 0.01 µM,0.631
same,relative viability,NCI-H1437; first compound 0.03162 µM,0.382
same,relative viability,NCI-H1437; first compound 0.1 µM,0.429
same,relative viability,NCI-H1650; first compound 0.001 µM,0.608
same,relative viability,NCI-H1650; first compound 0.003162 µM,0.735
same,relative viability,NCI-H1650; first compound 0.01 µM,0.531
same,relative viability,NCI-H1650; first compound 0.03162 µM,0.471
same,relative viability,NCI-H1650; first compound 0.1 µM,0.327
same,relative viability,NCI-H1666; first compound 0.001 µM,0.843
same,relative viability,NCI-H1666; first compound 0.003162 µM,0.689
same,relative viability,NCI-H1666; first compound 0.01 µM,0.638
same,relative viability,NCI-H1666; first compound 0.03162 µM,0.766
same,relative viability,NCI-H1666; first compound 0.1 µM,0.746
same,relative viability,NCI-H1792; first compound 0.001 µM,0.365
same,relative viability,NCI-H1792; first compound 0.003162 µM,0.491
same,relative viability,NCI-H1792; first compound 0.01 µM,0.446
same,relative viability,NCI-H1792; first compound 0.03162 µM,0.077
same,relative viability,NCI-H1792; first compound 0.1 µM,0.162
same,relative viability,NCI-H1915; first compound 0.001 µM,0.237
same,relative viability,NCI-H1915; first compound 0.003162 µM,0.283
same,relative viability,NCI-H1915; first compound 0.01 µM,0.224
same,relative viability,NCI-H1915; first compound 0.03162 µM,0.151
same,relative viability,NCI-H1915; first compound 0.1 µM,0.164
same,relative viability,NCI-H1975; first compound 0.001 µM,0.338
same,relative viability,NCI-H1975; first compound 0.003162 µM,0.338
same,relative viability,NCI-H1975; first compound 0.01 µM,0.308
same,relative viability,NCI-H1975; first compound 0.03162 µM,0.241
same,relative viability,NCI-H1975; first compound 0.1 µM,0.234
same,relative viability,NCI-H2342; first compound 0.001 µM,0.786
same,relative viability,NCI-H2342; first compound 0.003162 µM,0.76
same,relative viability,NCI-H2342; first compound 0.01 µM,0.798
same,relative viability,NCI-H2342; first compound 0.03162 µM,0.711
same,relative viability,NCI-H2342; first compound 0.1 µM,0.842
same,relative viability,NCI-H23; first compound 0.001 µM,0.319
same,relative viability,NCI-H23; first compound 0.01 µM,0.292
same,relative viability,NCI-H23; first compound 0.03162 µM,0.202
same,relative viability,NCI-H23; first compound 0.1 µM,0.197
same,relative viability,NCI-H322M; first compound 0.001 µM,0.538
same,relative viability,NCI-H322M; first compound 0.003162 µM,0.524
same,relative viability,NCI-H322M; first compound 0.01 µM,0.476
same,relative viability,NCI-H322M; first compound 0.03162 µM,0.613
same,relative viability,NCI-H322M; first compound 0.1 µM,0.465
same,relative viability,NCI-H358,0.134
